From ChEMBL document CHEMBL1201862, “PubChem BioAssay data set” (2004)
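Dose response: 5 concentrations. Exposure: 48 h. Format: 96-well plates. Endpoint: linear interpolation; highest concentration if not reached. At the GI50, growth is halved.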 Activity calls are given as the source filed them. No stated cut-off is given here; in the data, active = GI50 up to about 1.1 µM and inactive = higher.

Legend:
Experiment in all cases: DTP human tumour cell line panel, 48 h
786-0 = tested on: 786-0
A549 = tested on: A549
ACHN = tested on: ACHN
HCT-15 = tested on: HCT-15
HOP-92 = tested on: HOP-92
Hs-578T = tested on: Hs-578T
KM12 = tested on: KM12
MDA-MB-231 = tested on: MDA-MB-231
MOLT-4 = tested on: MOLT-4
Malme-3M = tested on: Malme-3M
NCI-H522 = tested on: NCI-H522
OVCAR-3 = tested on: OVCAR-3
OVCAR-5 = tested on: OVCAR-5
SNB-19 = tested on: SNB-19
SNB-75 = tested on: SNB-75
SR = tested on: SR
T47D = tested on: T47D
TK-10 = tested on: TK-10
UACC-62 = tested on: UACC-62
CCRF-CEM = tested on: CCRF-CEM

COc1cc(O)ccc1C(=S)SC
GI50 (786-0): > 100 µM (inactive) | GI50 (A549): 38.8 µM (inactive) | GI50 (ACHN): 68.2 µM (inactive) | GI50 (HCT-15): 40.8 µM | GI50 (HOP-92): 34.2 µM (inactive) | GI50 (Hs-578T): 24.1 µM (inactive) | GI50 (KM12): 69.7 µM (inactive) | GI50 (MDA-MB-231): 16.2 µM (inactive) | GI50 (MOLT-4): 20.8 µM (inactive) | GI50 (Malme-3M): 39.2 µM (inactive) | GI50 (NCI-H522): 46 µM (inactive) | GI50 (OVCAR-3): 62.4 µM (inactive) | GI50 (OVCAR-5): > 100 µM (inactive) | GI50 (SNB-19): 78.2 µM (inactive) | GI50 (SNB-75): > 100 µM (inactive) | GI50 (SR): 43.2 µM (inactive) | GI50 (T47D): 70.3 µM (inactive) | GI50 (TK-10): 60.4 µM (inactive) | GI50 (UACC-62): 28.3 µM (inactive)

CC(C)(C)OC(=O)NC(Cc1ccccc1)OCc1ccccc1 (stereo unspecified)
GI50 (786-0): 17.2 µM (inactive) | GI50 (A549): 17.6 µM (inactive) | GI50 (ACHN): 19.4 µM (inactive) | GI50 (HCT-15): 19.4 µM | GI50 (Hs-578T): 23.3 µM (inactive) | GI50 (KM12): 19.5 µM (inactive) | GI50 (MDA-MB-231): 15.3 µM (inactive) | GI50 (MOLT-4): 17.4 µM (inactive) | GI50 (Malme-3M): 23.6 µM (inactive) | GI50 (NCI-H522): 11.4 µM (inactive) | GI50 (OVCAR-3): 23.2 µM (inactive) | GI50 (OVCAR-5): 24 µM (inactive) | GI50 (SNB-19): 19.5 µM (inactive) | GI50 (SNB-75): 12.2 µM (inactive) | GI50 (SR): 30.7 µM (inactive) | GI50 (T47D): 14.6 µM (inactive) | GI50 (TK-10): 19 µM (inactive) | GI50 (UACC-62): 15 µM (inactive)

CC(=O)SSC1(Cl)C(C)(C)C(Cl)(SSC(C)=O)C1(C)C (stereo unspecified)
GI50 (786-0): 49.2 µM (inactive) | GI50 (A549): 73.6 µM (inactive) | GI50 (ACHN): 63.4 µM (inactive) | GI50 (CCRF-CEM): 24 µM (inactive) | GI50 (HCT-15): 34.7 µM | GI50 (HOP-92): > 100 µM (inactive) | GI50 (Hs-578T): > 100 µM (inactive) | GI50 (KM12): 39.4 µM (inactive) | GI50 (MDA-MB-231): > 100 µM (inactive) | GI50 (Malme-3M): 84.5 µM (inactive) | GI50 (NCI-H522): 38.8 µM (inactive) | GI50 (OVCAR-3): 61.4 µM (inactive) | GI50 (OVCAR-5): > 100 µM (inactive) | GI50 (SNB-19): 35 µM (inactive) | GI50 (SNB-75): 30.4 µM (inactive) | GI50 (T47D): 20.8 µM (inactive) | GI50 (TK-10): 75.2 µM (inactive) | GI50 (UACC-62): 52.6 µM (inactive)

COCN1C(=O)[C@@H]2CCCN2C(=O)c2cc(Cl)ccc21
GI50 (786-0): > 100 µM (inactive) | GI50 (A549): > 100 µM (inactive) | GI50 (ACHN): > 100 µM (inactive) | GI50 (HCT-15): > 100 µM | GI50 (HOP-92): > 100 µM (inactive) | GI50 (Hs-578T): > 100 µM (inactive) | GI50 (KM12): > 100 µM (inactive) | GI50 (MDA-MB-231): > 100 µM (inactive) | GI50 (MOLT-4): > 100 µM (inactive) | GI50 (Malme-3M): > 100 µM (inactive) | GI50 (NCI-H522): > 100 µM (inactive) | GI50 (OVCAR-5): > 100 µM (inactive) | GI50 (SNB-19): > 100 µM (inactive) | GI50 (SNB-75): > 100 µM (inactive) | GI50 (SR): > 100 µM (inactive) | GI50 (T47D): > 100 µM (inactive) | GI50 (TK-10): > 100 µM (inactive) | GI50 (UACC-62): > 100 µM (inactive)

CCNc1nc2c(ncn2C2CC(O)C(COP(=O)(O)O)O2)c(=O)[nH]1 (stereo unspecified)
GI50 (786-0): > 100 µM (inactive) | GI50 (A549): > 100 µM (inactive) | GI50 (ACHN): > 100 µM (inactive) | GI50 (HCT-15): > 100 µM | GI50 (HOP-92): > 100 µM (inactive) | GI50 (Hs-578T): > 100 µM (inactive) | GI50 (KM12): > 100 µM (inactive) | GI50 (MDA-MB-231): > 100 µM (inactive) | GI50 (Malme-3M): > 100 µM (inactive) | GI50 (NCI-H522): > 100 µM (inactive) | GI50 (OVCAR-3): > 100 µM (inactive) | GI50 (OVCAR-5): > 100 µM (inactive) | GI50 (SNB-19): > 100 µM (inactive) | GI50 (SNB-75): > 100 µM (inactive) | GI50 (SR): 86.3 µM (inactive) | GI50 (T47D): > 100 µM (inactive) | GI50 (TK-10): > 100 µM (inactive) | GI50 (UACC-62): > 100 µM (inactive)
